Reference: PubChem BioAssay AID1996
Converted amounts (≈) assume the structure as drawn.

settings: buffer; pH 7.4; 200.0 µM

SMILES	solubility kinetic [µg/mL]
COc1cc(NC(=O)C(Cc2ccccc2)n2cccc2)cc(OC)c1 (centres undefined)	16.3 (≈ 46.5 µM)
CC(C)(C(=O)c1cccnc1)c1cccnc1	> 33.9
CC(C)OCC(O)CN1CCC(Cc2ccccc2)CC1.Cl (centres undefined)	> 49.2
O=C(O)c1cc2c(cc1NC(=O)C1CCCC1)OCCO2	> 43.7
O=C(CSCc1ccccc1)NCCc1ccc(F)cc1	41.5 (≈ 137 µM)
Cc1cc2ccccn2c1C(=O)c1ccccc1F	12.5 (≈ 49.4 µM)
Cc1ccc(C(=O)NCCOc2ccc(Cl)cc2)cc1	3.4 (≈ 11.7 µM)
CCN(CC(=O)NCc1ccc(Cl)cc1)C(=O)c1sccc1C	> 52.6
CC1CCCC(C)N1C(=O)COC(=O)/C=C/c1ccc(Br)o1 (centres undefined)	29.8 (≈ 80.5 µM)
C=CCN(c1ccccc1)S(=O)(=O)c1c(C)[nH]c(=O)[nH]c1=O	> 48.2
CCOc1c(O)ccc(/C=C2\SC(=S)NC2=O)c1[N+](=O)[O-]	6.8 (≈ 20.8 µM)
CC(=O)Nc1cccc(OCCCNC(=O)c2ccc(F)cc2)c1	38.9 (≈ 118 µM)
Cc1ccc(SCC(=O)OCC(=O)NC2CCCCCC2)cc1	> 50.3
NC(=S)c1ncc(C(F)(F)F)cc1Cl	30.4 (≈ 126 µM)
COc1ccc(CNC(=O)CCC(=O)Nc2cccnc2)cc1	42.3 (≈ 135 µM)
COc1ccccc1CNC(=O)c1ccc(Cl)c(S(=O)(=O)N2CCCC2)c1	17.9 (≈ 43.8 µM)
Cc1ccc(C)c(C(C)NC(=O)C2CC=CCC2C(=O)O)c1 (centres undefined)	> 45.2
Cc1ccc(NC(=O)C2CC(=O)N(CCc3ccccc3)C2)c(C)c1 (centres undefined)	42 (≈ 125 µM)
CNC(=S)Nc1ccc(OCc2ccccc2)cc1	29.5 (≈ 108 µM)
CCn1cc(CCC(=O)O)c(C)n1	> 27.3
CCCCOc1ccc(C(=O)NCC(=O)OCC(=O)c2c(N)n(C)c(=O)n(C)c2=O)cc1	10.9 (≈ 24.4 µM)
CC(CCc1ccccc1)N1CCN(C)CC1 (centres undefined)	33.2 (≈ 143 µM)
O=C(CN1C(=O)C(=O)N(C2CCCC2)C1=O)Nc1ccccc1OC(F)F	> 57.2

SMILES	solubility kinetic [µg/mL]
COCCn1c(N)c(N(Cc2ccccc2)C(=O)Cc2ccccc2F)c(=O)[nH]c1=O	62.9 (≈ 147 µM)
COc1ccc2c(c1OC)C(=O)N1C2SC[C@H]1C(=O)NC1CC1 (some centres undefined)	> 50.2
O=C1c2oc3ccccc3c(=O)c2C(c2ccc(O)cc2)N1c1nccs1 (centres undefined)	0.8 (≈ 2.13 µM)
COc1ccc(CNc2ccc3c(c2)nc(C)n3C)cc1OC	37.2 (≈ 119 µM)
COCCn1c(-c2ccc(F)cc2)nc2cccnc21	36.1 (≈ 133 µM)
O=C(Nc1ccc(S(=O)(=O)N2CCCCC2)cc1)c1ccco1	46.2 (≈ 138 µM)
Cc1nc2cc(NS(=O)(=O)c3cccc(F)c3)ccc2s1	> 48.4
Cc1cc(C(=O)Nc2ccc(F)cc2F)on1	> 35.7
Cc1c(C(=O)O/N=C(\N)c2ccccn2)cccc1[N+](=O)[O-]	5.2 (≈ 17.3 µM)
CC1CC(C)CN(C(=O)COC(=O)COc2ccc(C#N)cc2)C1 (centres undefined)	43.5 (≈ 132 µM)
CC(C)Cn1c(=O)[nH]c(=O)c2c(C(F)(F)F)cc(-c3ccccc3)nc21	< 0.3
CCc1cc2c(=O)n(CC(=O)NC3CCCCC3)cnc2s1	20.5 (≈ 64.2 µM)
c1ccc2sc(NCC3CCCO3)nc2c1 (centres undefined)	> 35.1
CN1C(=S)SC(/[N+]([O-])=C\c2ccccc2F)C1(C)C (centres undefined)	> 44.8
CC(=O)c1ccccc1Oc1ncnc(N)c1[N+](=O)[O-]	> 41.1
c1ccc2c(CN3CCCCC3)c[nH]c2c1	> 32.1
COC(=O)c1ccc(NC(=S)N2CCCC2)cc1	> 39.7
CN1C(=O)c2ccc(C(=O)Nc3ccc4c(c3)OCO4)cc2C1=O	0.7 (≈ 2.16 µM)
Cc1cc(C(=O)N2CCN(c3ccccc3O)CC2)c(C)o1	> 45.1
Cc1sc2ncnc(SCC(=O)NC3CCCC3)c2c1C	5.2 (≈ 16.2 µM)
CC(=O)Nc1ccc2c(COC(=O)[C@@H](NS(=O)(=O)c3ccc(C)cc3)C(C)C)cc(=O)oc2c1	8.6 (≈ 17.7 µM)
CC(C)(C)OC(=O)NC(CC(=O)OCc1ccccc1)C(=O)O (centres undefined)	> 48.5
Cc1ccc(-c2cc3ccccc3nc2N)cc1	4 (≈ 17.1 µM)

More lines, now with the values ahead:

solubility kinetic [µg/mL]	SMILES
< 0.2	Cc1cc(NC(=O)CSc2nc3c(C)c(C)ccc3cc2C)no1
5.7 (≈ 19.6 µM)	C=CCOc1ccc(/C=C2\SC(N)=NC2=O)cc1OC
> 63.7	CCC(CC)c1nnc(NC(=O)c2cccc(S(=O)(=O)N3CCOCC3)c2)s1
2.8 (≈ 8.63 µM)	O=C(Nc1ccc(C(=O)OC2CCCCC2)cc1)c1ccncc1
> 46.4	COc1ccc(CCNC2CCC(c3ccccc3)CC2)cc1 (centres undefined)
> 41.3	CC(=O)Nc1ccc(C(=O)N2CC(=O)NC(=O)C2)cc1
36.8 (≈ 146 µM)	O=Cc1ccc(Oc2nc(Cl)ncc2F)cc1
7.7 (≈ 24.3 µM)	CC(=O)c1ccccc1NC(=O)COC(=O)CCC1CCCC1
< 0.3	Cc1cc(C(=O)Nc2ccc(F)cc2)c2ccccc2n1
15.2 (≈ 45.6 µM)	COc1cccc(C2N(Cc3ccccc3)C(=O)C2(F)F)c1OC (centres undefined)
> 75.2	CCN1CCN(CC(=O)Nc2cc(S(=O)(=O)N(CC)c3ccccc3)ccc2Cl)CC1.Cl
17.7 (≈ 56.9 µM)	COc1ccc(NC(=O)C2=Cc3cccc(OC)c3OC2)cc1
47.4 (≈ 145 µM)	COCCn1c(N)c(Sc2ccc(Cl)cc2)c(=O)[nH]c1=O
3.3 (≈ 10.5 µM)	Cc1csc(Nc2nc(N)c(C(=O)Nc3ccccc3)o2)n1
> 38.4	O=C(N/N=C/c1cccc(O)c1)c1ccccc1O
> 34.7	CCCNC(=O)Cc1c(C)oc2ccccc12
10.1 (≈ 34.8 µM)	COC(=O)c1sccc1NC(=O)Nc1ccc(C)cc1
> 46.9	COCCNC(=O)NC(=O)CSc1nc(C)c(C)c(C)n1
> 41.9	O=C(OCC(=O)N1CCCC1=O)c1ccc(O)cc1O

solubility kinetic [µg/mL]	SMILES
40.6 (≈ 107 µM)	COc1c(C)cc(C(=O)C2CCCN(C(=O)/C=C/c3ccccn3)C2)cc1C (centres undefined)
> 41.3	COCC(=O)N1CCN(c2nc3ccccc3o2)CC1
> 41.6	Cc1cccc(C(=O)OCC(=O)N2CCCC2=O)c1O
7 (≈ 15.6 µM)	CCN(c1ccccc1)S(=O)(=O)c1ccc(C(=O)N2CCN(c3ccccc3)CC2)cc1
3.1 (≈ 11.9 µM)	O=C(NCc1ccccc1)C(=O)Nc1nccs1
> 53.3	CN(C(=O)CN1CCN(c2ccc([N+](=O)[O-])cn2)CC1)c1ccccc1
3.5 (≈ 12.5 µM)	COc1ccc(/C=C(\C#N)C(=O)Nc2ccccn2)cc1
35.9	CCC(C)c1ccc(S(=O)(=O)Nc2cccnc2)cc1.Cl (centres undefined)
57.9 (≈ 145 µM)	COc1ccc(NC(=O)COC(=O)C(NC(=O)c2ccc(C)cc2)C(C)C)cn1 (centres undefined)
0.9 (≈ 2.53 µM)	COc1cc(=O)[nH]c(SC(C)C(=O)Nc2cccc3ccccc23)n1 (centres undefined)
> 56.2	COc1cc([N+](=O)[O-])ccc1N1C(=O)CC(Sc2nccc(C)n2)C1=O (centres undefined)
39	CC1CCCN(CC(O)COCc2ccc3c(c2)OCO3)C1.Cl (centres undefined)
> 48.9	COc1ccc(C2C(C#N)=C(N)Oc3c2oc(CO)cc3=O)cc1 (centres undefined)
> 52	CCC(C)(NC(=O)c1ccc2c(c1)OCO2)C(=O)NC1CCCCC1 (centres undefined)
> 49	COCCCN1CN=C(NS(=O)(=O)c2ccc(C)cc2)NC1
21.7 (≈ 79.6 µM)	Cc1cc(C)nc(N(C#N)Cc2ccc(Cl)cc2)n1
5.8 (≈ 13.8 µM)	Cc1ccc(CN(C)C(=O)c2cccc(S(=O)(=O)N3CCc4ccccc43)c2)cc1
> 45.6	CC(NC(=O)CCNC(=O)c1ccco1)c1ccc(F)cc1 (centres undefined)
9.7 (≈ 35.1 µM)	CSc1ncccc1C(=O)OCC(=O)c1ccc[nH]1
